# Data as given in patent US9023847B2, “Azaheterocyclic compounds” (Merck Patent GmbH, priority 2009, dated 2015).
# pIC50: −log10 of the molar value.
# Target: T1, P70S6K (T412E mutant, Millipore) (Homo sapiens, UniProt P23443, T412E)
# T1 construct: purchased Millipore
# Experiment: p70S6K enzyme assay
# Format: biochemical
# Conditions: Table 1; 3 nM P70S6K, 24 μM ATP, 90 min at 25° C.; read-out: p70S6K inhibition (IC50)
# Protocol: P70S6K inhibitor compounds are diluted and plated in 96 well plates. A reaction mixture including the following components is then added to the compound plate to initiate the enzyme reaction; P70S6K (3 nM, T412E mutant, Millipore) is mixed with 24 μM ATP in an assay buffer containing 100 mM Hepes (pH 7.5), 5 mM MgCl2, 1 mM DTT, 0.015% Brij and 1 μM of the substrate peptide FITC-AHA-AKRRRLSSLRA-OH (derived from the S6 ribosomal protein sequence, FITC=fluorescein isothiocyanate, AHA=6-aminohexanoic acid). The reaction is incubated for 90 min at 25° C., before the addition of 10 mM EDTA to stop the reaction. The proportion of substrate and product (phosphorylated) peptide is analysed on a Caliper Life Sciences Lab Chip 3000, using a pressure of −1.4 psi, and upstream and downstream voltages of −3000 and −700 respectively. Product peaks are resolved before substrate peaks on the resulting chromatograms.
# T1 sequence (P23443 whole entry T412E): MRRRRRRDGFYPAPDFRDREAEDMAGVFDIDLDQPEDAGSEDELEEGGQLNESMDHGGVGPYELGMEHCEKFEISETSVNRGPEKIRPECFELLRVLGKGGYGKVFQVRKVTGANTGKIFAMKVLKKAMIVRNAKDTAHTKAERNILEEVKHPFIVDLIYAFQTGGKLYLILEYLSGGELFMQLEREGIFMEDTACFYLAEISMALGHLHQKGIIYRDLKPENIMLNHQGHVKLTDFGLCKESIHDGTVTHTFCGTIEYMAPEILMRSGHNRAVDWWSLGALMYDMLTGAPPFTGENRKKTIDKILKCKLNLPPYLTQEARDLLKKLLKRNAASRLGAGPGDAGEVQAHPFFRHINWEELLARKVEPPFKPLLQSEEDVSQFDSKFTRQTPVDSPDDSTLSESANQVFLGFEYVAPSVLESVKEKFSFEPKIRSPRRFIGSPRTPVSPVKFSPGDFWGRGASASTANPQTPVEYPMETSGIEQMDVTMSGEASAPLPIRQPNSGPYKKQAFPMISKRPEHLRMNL
row,pIC50,Compound
1,> 7.00,"O=C(NCCc1ccc(F)cc1)c1sccc1Nc1ccnc2[nH]ccc12 [Example 150, 3-(1H-Pyrrolo[2,3-b]pyridin-4-ylamino)-thiophene-2-carboxylic acid [2-(4-fluoro-phenyl)-ethyl]-amide]"

# Same assay, conditions: class symbol; 3 nM P70S6K, 24 μM ATP; read-out: IC50 (p70S6K)
row,pIC50,Compound
1,> 7.00,"CNCC(NC(=O)c1sccc1Nc1ccnc2[nH]ccc12)c1ccccc1 (centres unmarked) [Example 169, 3-(1H-Pyrrolo[2,3-b]pyridin-4-ylamino)-thiophene-2-carboxylic acid (2-methylamino-1-phenyl-ethyl)-amide]"
2,> 7.00,"O=C(NCc1cccc(Cl)c1)c1sccc1Nc1ccnc2[nH]ccc12 [Example 30, 3-(1H-Pyrrolo[2,3-b]pyridin-4-ylamino)-thiophene-2-carboxylic acid 3-chloro-benzylamide]"
3,6.00 to 7.00,"O=C(NCCNCc1ccncc1)c1sccc1Nc1ccnc2[nH]ccc12 [Example 74, 3-(1H-Pyrrolo[2,3-b]pyridin-4-ylamino)-thiophene-2-carboxylic acid {2-[(pyridin-4-ylmethyl)-amino]-ethyl}-amide]"
4,6.00 to 7.00,"O=C(NCCOc1ccccc1)c1sccc1Nc1ccnc2[nH]ccc12 [Example 12, 3-(1H-Pyrrolo[2,3-b]pyridin-4-ylamino)-thiophene-2-carboxylic acid (2-phenoxy-ethyl)-amide]"
5,6.00 to 7.00,"O=C(NCc1cn(Cc2ccccc2)nn1)c1sccc1Nc1ccnc2[nH]ccc12 [Example 101, 3-(1H-Pyrrolo[2,3-b]pyridin-4-ylamino)-thiophene-2-carboxylic acid (1-benzyl-1H-[1,2,3]triazol-4-ylmethyl)-amide]"
6,> 7.00,"O=C(NCc1ccccc1)c1ccsc1Nc1ccnc2[nH]ccc12 [Example 112, 2-(1H-Pyrrolo[2,3-b]pyridin-4-ylamino)-thiophene-3-carboxylic acid benzylamide]"
7,> 7.00,"NC[C@@H](NC(=O)c1sccc1Nc1ccnc2[nH]ccc12)c1ccccc1 [Example 170, 3-(1H-Pyrrolo[2,3-b]pyridin-4-ylamino)-thiophene-2-carboxylic acid ((S)-2-amino-1-phenyl-ethyl)-amide]"
8,> 7.00,"O=C(NCC(O)c1ccccc1)c1sccc1Nc1ccnc2[nH]ccc12 (centres unmarked) [Example 99, 3-(1H-Pyrrolo[2,3-b]pyridin-4-ylamino)-thiophene-2-carboxylic acid (2-hydroxy-2-phenyl-ethyl)-amide]"
9,> 7.00,"COc1ccc(NC(=O)c2sccc2Nc2ccnc3[nH]ccc23)cc1 [Example 36, 3-(1H-Pyrrolo[2,3-b]pyridin-4-ylamino)-thiophene-2-carboxylic acid (4-methoxy-phenyl)-amide]"
10,> 7.00,"O=C(NCCc1ccc(Br)cc1)c1sccc1Nc1ccnc2[nH]ccc12 [Example 27, 3-(1H-Pyrrolo[2,3-b]pyridin-4-ylamino)-thiophene-2-carboxylic acid [2-(4-bromo-phenyl)-ethyl]-amide]"
11,> 7.00,"O=C(NCCSCc1ccco1)c1sccc1Nc1ccnc2[nH]ccc12 [Example 24, 3-(1H-Pyrrolo[2,3-b]pyridin-4-ylamino)-thiophene-2-carboxylic acid [2-(furan-2-ylmethylsulfanyl)-ethyl]-amide]"
12,> 7.00,"O=C(NCc1ccccc1)c1sccc1Nc1ncnc2[nH]ccc12 [Example 172, 3-(7H-Pyrrolo[2,3-d]pyrimidin-4-ylamino)-thiophene-2-carboxylic acid benzylamide]"
13,5.00 to 6.00,"Cc1cc(Nc2ccnc3[nH]ccc23)c(C(=O)NCCNCc2ccccc2)s1 [Example 79, 5-Methyl-3-(1H-pyrrolo[2,3-b]pyridin-4-ylamino)-thiophene-2-carboxylic acid (2-benzylamino-ethyl)-amide]"
14,> 7.00,"O=C(NCCNCc1ccccc1)c1sccc1Nc1ccnc2[nH]ccc12 [Example 29, 3-(1H-Pyrrolo[2,3-b]pyridin-4-ylamino)-thiophene-2-carboxylic acid (2-benzylamino-ethyl)-amide]"
15,> 7.00,"NC(=O)C[C@@H](NC(=O)c1sccc1Nc1ccnc2[nH]ccc12)c1ccccc1 [Example 120, 3-(1H-Pyrrolo[2,3-b]pyridin-4-ylamino)-thiophene-2-carboxylic acid ((R)-2-carbamoyl-1-phenyl-ethyl)-amide]"

# Further lines, the compound ahead of its results:
row,Compound,pIC50
1,"CC(O)CNC(=O)c1sccc1Nc1ccnc2[nH]ccc12 (centres unmarked) [Example 11, 3-(1H-Pyrrolo[2,3-b]pyridin-4-ylamino)-thiophene-2-carboxylic acid (2-hydroxy-propyl)-amide]",6.00 to 7.00
2,"NCC(NC(=O)c1ccsc1Nc1ccnc2[nH]ccc12)c1cccc(F)c1 (centres unmarked) [Example 108, 2-(1H-Pyrrolo[2,3-b]pyridin-4-ylamino)-thiophene-3-carboxylic acid [2-amino-1-(3-fluoro-phenyl)-ethyl]-amide]",> 7.00
3,"NC[C@@H](NC(=O)c1sccc1Nc1ccnc2[nH]ccc12)c1ccc(Cl)c(Cl)c1 (stereo in doubt) [Example 125, 3-(1H-Pyrrolo[2,3-b]pyridin-4-ylamino)-thiophene-2-carboxylic acid [2-amino-1-(3,4-dichloro-phenyl)-ethyl]-amide]",> 7.00
4,"O=C(N[C@H](CO)c1ccccc1)c1ccsc1Nc1ccnc2[nH]ccc12 [Example 75, 2-(1H-Pyrrolo[2,3-b]pyridin-4-ylamino)-thiophene-3-carboxylic acid ((S)-2-hydroxy-1-phenyl-ethyl)-amide]",> 7.00
5,"COc1cccc(C(CN(C)C)NC(=O)c2sccc2Nc2ccnc3[nH]ccc23)c1 (centres unmarked) [Example 160, 3-(1H-Pyrrolo[2,3-b]pyridin-4-ylamino)-thiophene-2-carboxylic acid [2-dimethylamino-1-(3-methoxy-phenyl)-ethyl]-amide]",> 7.00
6,"Cc1ccccc1CCNC(=O)c1sccc1Nc1ncnc2[nH]ccc12 [Example 181, 3-(7H-Pyrrolo[2,3-d]pyrimidin-4-ylamino)-thiophene-2-carboxylic acid (2-o-tolyl-ethyl)-amide]",> 7.00
7,"O=C(NCCc1ccc(F)cc1)c1sccc1Nc1ncnc2[nH]ccc12 [Example 179, 3-(7H-Pyrrolo[2,3-d]pyrimidin-4-ylamino)-thiophene-2-carboxylic acid [2-(4-fluoro-phenyl)-ethyl]-amide]",> 7.00
8,"CNCC(NC(=O)c1sccc1Nc1ccnc2[nH]ccc12)c1cccc(Cl)c1 (centres unmarked) [Example 168, 3-(1H-Pyrrolo[2,3-b]pyridin-4-ylamino)-thiophene-2-carboxylic acid [1-(3-chloro-phenyl)-2-methylamino-ethyl]-amide]",> 7.00
9,"NC[C@@H](NC(=O)c1sccc1Nc1ccnc2[nH]ccc12)c1cccc(F)c1 [Example 171, 3-(1H-Pyrrolo[2,3-b]pyridin-4-ylamino)-thiophene-2-carboxylic acid [(S)-2-amino-1-(3-fluoro-phenyl)-ethyl]-amide]",> 7.00
10,"NC1CCN(C(=O)c2sccc2Nc2ccnc3[nH]ccc23)CC1 [Example 64, (4-Amino-piperidin-1-yl)-[3-(1H-pyrrolo[2,3-b]pyridin-4-ylamino)-thiophen-2-yl]-methanone]",5.00 to 6.00
11,"O=C(NC1CCCNC1)c1sccc1Nc1ncnc2[nH]ccc12 (centres unmarked) [Example 186, 3-(7H-Pyrrolo[2,3-d]pyrimidin-4-ylamino)-thiophene-2-carboxylic acid piperidin-3-ylamide]",> 7.00
12,"Cc1cc(Nc2ncnc3[nH]ccc23)c(C(=O)NCc2cccc(Cl)c2)s1 [Example 178, 5-Methyl-3-(7H-pyrrolo[2,3-d]pyrimidin-4-ylamino)-thiophene-2-carboxylic acid 3-chloro-benzylamide]",6.00 to 7.00
13,"NCC(NC(=O)c1sccc1Nc1ccnc2[nH]ccc12)c1cccc(F)c1 (centres unmarked) [Example 106, 3-(1H-Pyrrolo[2,3-b]pyridin-4-ylamino)-thiophene-2-carboxylic acid [2-amino-1-(3-fluoro-phenyl)-ethyl]-amide]",> 7.00
14,"NCC(NC(=O)c1ccsc1Nc1ccnc2[nH]ccc12)c1ccc(Cl)c(Cl)c1 (centres unmarked) [Example 128, 2-(1H-Pyrrolo[2,3-b]pyridin-4-ylamino)-thiophene-3-carboxylic acid [2-amino-1-(3,4-dichloro-phenyl)-ethyl]-amide]",> 7.00
15,"O=C(NCCNCc1ccc(Cl)c(C(F)(F)F)c1)c1sccc1Nc1ccnc2[nH]ccc12 [Example 90, 3-(1H-Pyrrolo[2,3-b]pyridin-4-ylamino)-thiophene-2-carboxylic acid [2-(4-chloro-3-trifluoromethyl-benzylamino)-ethyl]-amide]",> 7.00
16,"[N-]=[N+]=NC[C@@H](NC(=O)c1ccsc1Nc1ccnc2[nH]ccc12)c1ccccc1 [Example 114, 2-(1H-Pyrrolo[2,3-b]pyridin-4-ylamino)-thiophene-3-carboxylic acid ((S)-2-azido-1-phenyl-ethyl)-amide]",> 7.00
17,CC(C)(C)OC(=O)N(CCNC(=O)c1occc1Nc1ncnc2[nH]ccc12)Cc1ccccc1 [Example 177],5.00 to 6.00

# Same assay, conditions: numeric bound printed under the example; read-out: IC50 (p70S6K)
row,pIC50,Compound
1,< 5.00,"O=C(NCCNCc1ccccc1)c1sc2ccccc2c1Nc1ccnc2[nH]ccc12 [Example 82, 3-(1H-Pyrrolo[2,3-b]pyridin-4-ylamino)-benzo[b]thiophene-2-carboxylic acid (2-benzylamino-ethyl)-amide]"
2,< 5.00,"O=C(N[C@H](CO)c1ccccc1)c1sc2ccccc2c1Nc1ccnc2[nH]ccc12 [Example 83, 3-(1H-Pyrrolo[2,3-b]pyridin-4-ylamino)-benzo[b]thiophene-2-carboxylic acid ((S)-2-hydroxy-1-phenyl-ethyl)-amide]"
